Patent EP2316926B1, “Enantioselective production of alpha-hydroxy carbonyl compounds” (priority 2009, dated 2011)

What was measured:
Gox1615 = target: T1, Gox1615 (Gluconobacter oxydans, UniProt Q5FQJ0); assay: Coupled-enzyme biotransformation with cofactor regeneration, product determined by NMR (regio- and stereoselectivity); type: biochemical
T1 sequence (Q5FQJ0 1-332): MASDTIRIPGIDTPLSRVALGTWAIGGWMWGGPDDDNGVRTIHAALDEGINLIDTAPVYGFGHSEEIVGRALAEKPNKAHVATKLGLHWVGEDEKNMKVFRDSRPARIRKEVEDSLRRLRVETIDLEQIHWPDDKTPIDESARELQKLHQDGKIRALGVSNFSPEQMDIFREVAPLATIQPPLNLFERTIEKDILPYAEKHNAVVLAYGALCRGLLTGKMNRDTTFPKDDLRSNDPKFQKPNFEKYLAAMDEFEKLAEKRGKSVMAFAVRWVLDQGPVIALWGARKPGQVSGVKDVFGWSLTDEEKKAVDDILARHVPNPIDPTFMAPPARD
Experimental: (§1) Measurement of enzyme activity: NADPH-dependent α-ketocarbonyl reductases were assayed by a routine method used for NAD(P)-linked enzymes by recording the rate of decrease of NADPH at 340 nm (ε = 6.22 mM^-1 x cm^-1)) with substrates at 30 °C. The reaction mixture (1 ml) for reduction of α-ketocarbonyl substrates contained 10 mM substrate, 40 mM potassium phosphate buffer pH 7.0, 0.025 mM NAD(P)H and the enzyme. Reactions were induced by addition of enzyme or substrate. One unit was defined as the amount of enzyme activity catalyzing the conversion of 1 µmol of pyridine nucleotide per min at 30 °C. NMR Analysis of Biotransformation Products: Biotransformations were extracted with equal volumes of CDCl3. and ^13C NMR spectra were recorded on a Bruker Avance 300 DPX spectrometer operating at 300 MHz for ^1H NMR and at 75 MHz for ^13C NMR, respectively. Spectra were processed using Bruker TonSpin 1.3 for Windows software and calibrated to the residual solvent peak of CDCl3 (δH = 7.26 / δC = 77.0).
(§2) Determination of the absolute configuration of the biotransformation product 2-hydroxy-pentan-3-one using chiral NMR shift solvents: Chiral NMR shift reagent (R,R)- and (S,S)-bis-α-methylbenzylamine-para-methyl (BMBA-p-Me) was prepared with small modifications according to the method reported by Kobayashi, Y et al., Tetrahedron Lett. 44: 7489-7491 (2003). In brief, the method of Marshall, J.A. and Mikowski, A. M., Org. Lett. 8:4375-4378 (2006) was used to synthesize 1,3-dibromo-2-methylpropane from 1,3-dihydroxy-2-methylpropane. Diisopropylethylamine (25.5 g), triphenylphosphine (20.1 g) and CBr4 (25.5 g) were sequentially added to a stirring solution of […] in 100 ml CH2Cl2 at 0 °C. The reaction was stirred for 3-4 h at 0 °C and concentrated under reduced pressure to give a green-brown oil. The oil was dissolved in diethyl ether and water (100 ml each) and the aqueous layer was extracted three times with diethyl ether. The organic extracts were combined and washed with water and brine, and dried over MgSO4. The reaction was concentrated under reduced pressure and applied to flash chromatography on silica 60 (230-400 mesh, 100% cyclohexane). Fractions containing the 1,3-dibromo-2-methylpropane product were combined (as judged by Si-TLC [100% cyclohexene]) and concentrated under reduced pressure resulting in a brown-yellow oil. The dibromopropane oil was used for the synthesis of (R,R)- and (S,S)-BMBA-p-Me as described by (Kobayashi, Y. et al., Org. Lett. 4(3):411-414 (2002). The crude oil was distilled by Kugelrohr at 240 °C to give crude BMPA-p-Me (yellow oil). BMBA-p-Me was purified by HPLC using a C18 column (Waters Xterra, 250 x 4.6 mm) at a flow rate of 0.8 ml min^-1 and a 40 min linear gradient of 50-100 % MeOH at ambient temperature. Fractions were concentrated under reduced pressure and BMBA-p-Me was identified by ^1H-NMR (colorless hygroscopic oil).
(§3) Approximately 7.5 mg of the extracted product 2-hydroxy-pentan-3-one was added to 15 mg (R,R)- or (S,S)-BMBA-p-Me (dissolved in 200-300 µl CDCl3) and analyzed by ^13C NMR with the readout adjusted to 0.001 ppm/point (sw = 239 ppm, td = 512k) (Fiorentino, A. et al., Tetrahedron., 62:8952-8958 (2006)). The absolute configuration was determined based on the sign of ΔδRR-SS (δ(R,R)-BMBA-p-Me - δ(S,S)-BMBA-p-Me) for the α-carbons adjacent to the hydroxymethine unit as formulated in the following model shown in Scheme 3 (valid for saturated secondary alcohols of acyclic and cyclic compounds): [drawing 7]
(§4) Cofactor regeneration: A prerequisite for the production of α-hydroxycarbonyl compounds is the regeneration of the expensive coenzymes and the stability of the protein catalysts. By coupling two coenzyme-dependent enzyme reactions, NADPH can be continuously regenerated. […]

Gox0644 = Gox0644 (Gluconobacter oxydans, UniProt Q5FT75); assay: as above; type: biochemical
Experimental: as §1, §2, §3, §4

[1] = NMR with chiral solvent BMBA-p-Me

CCC(=O)C(C)=O [2,3-pentanedione]
Product (stereoselective reduction) (Gox1615; [1]): 2S-hydroxy-pentan-3-one | Product (regioselective reduction) (Gox1615; determined by NMR analysis): 2-hydroxy-pentan-3-one | Product (stereoselective reduction) (Gox0644; [1]): 2R-hydroxy-pentan-3-one | Product (regioselective reduction) (Gox0644; determined by NMR analysis): 2-hydroxy-pentan-3-one
